Patent publication US10016409B2, “Method for improving interstitial flow” (priority 2012, dated 2018)
Counter-ions that a name gives are not always drawn.

Key:
MCI patients [1] = conditions: cited from earlier work; for conversion from MCI to Alzheimer: Non-patent Document 3; for effectiveness on MCI patients: clinical trials, Guidelines for Management of Dementia
MCI patients [2] = test: Clinical record analysis, MMSE change in MCI patients (MMSE 22 to 26) under donepezil hydrochloride oral administration; format: in vivo, human; conditions: MCI patients MMSE 22-26
Text: Patients subjected to oral administration of donepezil hydrochloride, having an observation period of one or more years before the MMSE test date, and having first MMSE scores less than or equal to 26 were picked up from a clinical record. Among the patients, patients recorded to have been consecutively administered with cilostazol for 6 months or more in the observation period were classified as a donepezil hydrochloride and cilostazol combined use group (69 cases), and patients recorded to have experienced no cilostazol oral administration were classified as a donepezil hydrochloride single use group (87 cases). Cilostazol was oral-administered at a dosage of 50 to 200 mg/day in the morning and evening, and donepezil hydrochloride was administered at a dosage of 5 mg/day once in a day. Among the patients, patients with MMSE scores greater than or equal to 22 and less than or equal to 26 were extracted as an MCI patient group. Then, 36 cases (16 males and 20 females, average age: 78.4 years old) of the donepezil hydrochloride single use group (hereinafter referred to as a single use group) and 34 cases (15 males and 19 females, average age: 77.2 years old) of the donepezil hydrochloride and cilostazol combined use group (hereinafter referred to as combined use group) were found. The average dosage of cilostazol in the combined use group was 121 mg/day. […] Measurement of MMSE was conducted at least twice in the observation period, and the first and last test results were selected for analysis.

dementia patients = test: Clinical record analysis, MMSE change in dementia patients (MMSE less than or equal to 21) under donepezil hydrochloride oral administration; format: in vivo, human; conditions: dementia patients MMSE less than or equal to 21
Text: Patients subjected to oral administration of donepezil hydrochloride, having an observation period of one or more years before the MMSE test date, and having first MMSE scores less than or equal to 26 were picked up from a clinical record. Among the patients, patients recorded to have been consecutively administered with cilostazol for 6 months or more in the observation period were classified as a donepezil hydrochloride and cilostazol combined use group (69 cases), and patients recorded to have experienced no cilostazol oral administration were classified as a donepezil hydrochloride single use group (87 cases). Cilostazol was oral-administered at a dosage of 50 to 200 mg/day in the morning and evening, and donepezil hydrochloride was administered at a dosage of 5 mg/day once in a day.
As a dementia patient group oral-administered with donepezil hydrochloride, patients with MMSE scores less than or equal to 21 were extracted. Then, the donepezil hydrochloride single use group (the single use group) was 51 cases (17 males and 34 females, average age: 78.2 years old) and the donepezil hydrochloride and cilostazol combined use group (the combined use group) was 35 cases (14 males and 21 females, average age: 79.3 years old). The average dosage of cilostazol in the combined use group was 139 mg/day.

Compound: estrogen
- risk of onset of dementia or MCI (MCI patients [1]; RCT, postmenopausal women of 65 years of age or more without dementia): increased the risk of onset of dementia or MCI significantly

Compound: CS(=O)(=O)c1ccc(C2=C(c3ccccc3)C(=O)OC2)cc1 [rofecoxib]
- prophylactic effects (dementia or MCI) (MCI patients [1]; guideline p. 116, Other Drugs (2)): no prophylactic effects

Compound: COc1cc2c(cc1OC)C(=O)C(CC1CCN(Cc3ccccc3)CC1)C2 (stereo not drawn) [donepezil hydrochloride]
- MMSE change rate (MCI patients [2]; increment or decrement of MMSE score/observation period [year], average±standard error, p=0.022 between groups): −2.23±0.69
- change rate of MMSE item 1 of orientation to time (MCI patients [2]; per observation period [year], p=0.003): −0.85
- change rate of MMSE item 2 of orientation to location (MCI patients [2]; per observation period [year], p=0.017): −0.31
- change rate of MMSE item 5 of delayed recall (MCI patients [2]; per observation period [year], p=0.045): −0.28
- conversion from MCI to Alzheimer (MCI patients [1]): do not affect conversion from MCI to Alzheimer
- effectiveness on MCI patients (MCI patients [1]): very limited or is not present
- change rate of MMSE item 5 of delayed recall (dementia patients; p=0.37): −0.15
- change rate of MMSE item 2 of orientation to location (dementia patients; p=0.86): −0.13
- change rate of MMSE item 1 of orientation to time (dementia patients; p=0.89): −0.16
- MMSE change rate (dementia patients; per observation period, average±standard error, p=0.72 between groups): −0.90±037

Compound: CCN(C)C(=O)Oc1cccc([C@H](C)N(C)C)c1 [rivastigmine]
- effectiveness on MCI patients (MCI patients [1]): very limited or is not present

Compound: vitamin E
- conversion from MCI to Alzheimer (MCI patients [1]): do not affect conversion from MCI to Alzheimer
- dementia prophylactic effect / prophylactic effect against conversion to Alzheimer (MCI patients [1]; RCT directed to MCI patients): neither dementia prophylactic effect nor prophylactic effect against conversion to Alzheimer was obtained
